Measurements as given in patent US9974745B2, “Encochleation methods, cochleates and methods of use” (RUTGERS, THE STATE UNIVERSITY OF NEW JERSEY, priority 2003, dated 2018).
Values belong to the compound of their own block, whether it stands above or below them.

Columns and labels:
[1] = system: stomachs of rats; assay: Gastric irritation (bleeding and ulcerations) in rats; assay type: in vivo, rat; conditions: stomachs examined 4 hours post carrageenan injection; samples 2, 3, 7 and 9
Method: A carrageenan model was employed to study the effect of anti-inflammatory cochleates on edema in rat paws. Various aspirin cochleates of the invention were used to treat carrageenan-induced rat paw edema. […] Additionally, rats in all groups were examined for gastric irritation.
Samples 6-10 were prepared in accordance with Example 16, except that the lipid:aspirin molar ratio was 5:1 and soy PS was used instead of DOPS. Samples 4, 5, and 11 were prepared in a similar manner in the absence of a cargo moiety. In all cases, water was used in lieu of TES buffer. All samples were given by oral gavage at 1 hour prior to injection of carrageenan on Day 0 in a volume of 3 mL of 0.5% methylcellulose. […] Volumes of rat paw (in ml) were measured prior to carrageenan injection using a semi-automated plethysmograph (Buxco). At 0 time, 0.1 ml of 1% carrageenan in 0.9% pyrogen free saline was injected into the right hind paw of the rat. The paw volumes (in ml) were measured again 3 hours post carrageenan injection to determine inhibition of paw edema. Four rats from each of groups 2, 3, 6, 7, 8, 9 and 10 and one rat from each of groups 1, 4, 5 and 11 were bled (intravenously, jugular vein, approximately 1 ml blood) at 30 minutes and 4 hours post drug administration. Blood was collected in heparinized vacutainers. […]

[2] = HPLC stability of TY in cochleates versus free TY in solution; assay type: physicochemical
Description: HPLC was used to study the stability of the TY in the cochleates, by measuring the concentration of TY in TY-cochleates as compared to free, i.e., unencochleated TY in solution.

[3] = system: SKOV3 cells; assay: Interaction of ZnTPP-cochleates with SKOV3 cells, confocal fluorescence; assay type: cell-based
Description: Phase contrast light microscopy and confocal microscopy (Olympus) was used to image liposomal suspensions, cochleates and cells, with and without the aid of fluorescence, which can be used, e.g., to study cellular uptake and intracellular distribution of fluorescently labeled cochleates and cargo moieties. Confocal microscopy is particularly advantageous as it is a 3-dimensional digital imaging device that can be used to effectively view slices of cell culture. This allows verification of the presence of cochleate and other agents within a cell.
In order to study any interaction of the cochleates with cells, ZnTPP-cochleates and free ZnTPP (in solution with DMSO) were introduced to SKOV3 cell cultures, and imaged with fluorescence under a confocal microscope.
Cochleates were prepared with and without ZnTPP as described above, except that prior to introduction of the ZnTPP/solvent, liposomes were formed with 1% diolyl phosphatidylethanolamine (DOPE) liganded to pyrene (purchased Avanti). The DOPE was incorporated into the soy PS liposomes by dissolving both DOPE and lipid in solvent, drying the solvent to a film, and using an aqueous solution to form liposomes. Confocal images were taken at 1 and 24 hours after introduction to SKOV3 cells to study the uptake and any difference in the cellular distribution of cochleate/lipid and the ZnTPP. […]

SMILES: CC(=O)Oc1ccccc1C(=O)O [unencochleated aspirin, aspirin]
- incidence and level of severity of gastric irritation [1]: greatest gastric irritation, followed by unencochleated aspirin

- concentration of degradation products (impurity 1 and impurity 2) over time [2]: degraded over time
- TY concentration over time (stability) ([2]; cochleates versus free TY in solution): decreased to zero
SMILES: COc1cc(/C=C(\C#N)C(N)=O)cc(CSc2nc3ccccc3s2)c1O [free TY, Tyrphostin AG-825]

SMILES: C1=Cc2nc1c(-c1ccccc1)c1ccc([n-]1)c(-c1ccccc1)c1nc(c(-c3ccccc3)c3ccc([n-]3)c2-c2ccccc2)C=C1.[Zn+2] [free ZnTPP, Zinc Tetra-Phenyl Porphyrin]
- degradation of ZnTPP in SKOV3 cell culture ([3]; at 24 hours): significant degradation
- uptake by SKOV3 cells ([3]; confocal fluorescence images at 1 hour and 24 hours): high uptake

SMILES: COc1ccc2c(c1)c(CC(=O)O)c(C)n2C(=O)c1ccc(Cl)cc1 [indomethacin]
- incidence and level of severity of gastric irritation [1]: greatest gastric irritation
